Assay results reported in patent US10385022B2, “3-amino-pyridines as GPBAR1 agonists” (HOFFMANN-LA ROCHE INC., priority 2011, dated 2019).

Target: human GPBAR1 receptor (Homo sapiens (Human), UniProt Q8TDU6)
Assay: functional cAMP assay in CHO-dhfr(minus) cells expressing human GPBAR1 receptors
Assay type: cell-based
Conditions: CHO-dhfr(minus) cells expressing human GPBAR1, 30 min at 30° C.
Summary of the method: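 Functional cAMP responses in a human GPBAR1-transfected CHO-dhfr- clone, picked using lithocholic acid as agonist, gave the EC50 values. Parallel testing in untransfected CHO cells served as a specificity control.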

Chain of human GPBAR1 receptor (Q8TDU6 whole entry): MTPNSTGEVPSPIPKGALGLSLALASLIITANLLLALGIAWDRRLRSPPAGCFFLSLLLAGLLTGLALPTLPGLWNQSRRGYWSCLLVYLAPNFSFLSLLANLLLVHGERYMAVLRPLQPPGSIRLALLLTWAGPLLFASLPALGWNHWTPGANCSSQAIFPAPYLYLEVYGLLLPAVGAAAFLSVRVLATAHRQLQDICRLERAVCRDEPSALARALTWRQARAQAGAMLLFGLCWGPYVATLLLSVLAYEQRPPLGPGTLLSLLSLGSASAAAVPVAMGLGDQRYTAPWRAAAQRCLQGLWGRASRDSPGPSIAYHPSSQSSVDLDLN

SMILES | EC50 [nM]
COc1cc(F)ccc1-c1ccncc1N(CC(F)(F)F)C(=O)c1cc(C(F)(F)F)cc(S(=O)(=O)N(C)C)c1 [Example 133, 3-Dimethylsulfamoyl-N-[4-(4-fluoro-2-methoxy-phenyl)-pyridin-3-yl]-N-(2,2,2-trifluoro-ethyl)-5-trifluoromethyl-benzamide] | 39
COc1ncccc1-c1ccncc1N(CC(F)(F)F)C(=O)c1cc(C(F)(F)F)cc(C(F)(F)F)c1 [Example 135, N-(2-Methoxy-[3,4′]bipyridinyl-3′-yl)-N-(2,2,2-trifluoro-ethyl)-3,5-bis-trifluoromethyl-benzamide] | 91
COc1cc(F)ccc1-c1ccncc1N(CC(F)(F)F)C(=O)c1cc(C(F)(F)F)cc(S(C)(=O)=O)c1 [Example 136, N-[4-(4-Fluoro-2-methoxy-phenyl)-pyridin-3-yl]-3-methanesulfonyl-N-(2,2,2-trifluoro-ethyl)-5-trifluoromethyl-benzamide] | 247
COc1cc(F)c(F)cc1-c1ccncc1N(CC(F)(F)F)C(=O)c1cc(C(F)(F)F)cc(S(C)(=O)=O)c1 [Example 139, N-[4-(4,5-Difluoro-2-methoxy-phenyl)-pyridin-3-yl]-3-methanesulfonyl-N-(2,2,2-trifluoro-ethyl)-5-trifluoromethyl-benzamide] | 606
COc1cc(F)c(F)cc1-c1ccncc1N(CC(F)(F)F)C(=O)c1cc(C(F)(F)F)cc(S(=O)(=O)N(C)C)c1 [Example 140, N-[4-(4,5-Difluoro-2-methoxy-phenyl)-pyridin-3-yl]-3-dimethylsulfamoyl-N-(2,2,2-trifluoro-ethyl)-5-trifluoromethyl-benzamide] | 124
COc1ncccc1-c1ccncc1N(CC(F)(F)F)C(=O)c1cc(F)cc(C(F)(F)F)c1 [Example 141, 3-Fluoro-N-(2-methoxy-[3,4′]bipyridinyl-3′-yl)-N-(2,2,2-trifluoro-ethyl)-5-trifluoromethyl-benzamide] | 1660
COc1cc(F)ccc1-c1ccncc1N(C)C(=O)c1cc(C(F)(F)F)cc(S(=O)(=O)N(C)C)c1 [Example 143, 3-Dimethylsulfamoyl-N-[4-(4-fluoro-2-methoxy-phenyl)-pyridin-3-yl]-N-methyl-5-trifluoromethyl-benzamide] | 12
COc1ncccc1-c1ccncc1N(CC(F)(F)F)C(=O)c1cc(C(F)(F)F)nc(C(F)(F)F)c1 [Example 145, N-(2-Methoxy-[3,4′]bipyridinyl-3′-yl)-N-(2,2,2-trifluoro-ethyl)-2,6-bis-trifluoromethyl-isonicotinamide] | 30
COc1cc(F)c(F)cc1-c1ccncc1N(CC(F)(F)F)C(=O)c1cc(C(F)(F)F)nc(C(F)(F)F)c1 [Example 146, N-[4-(4,5-Difluoro-2-methoxy-phenyl)-pyridin-3-yl]-N-(2,2,2-trifluoro-ethyl)-2,6-bis-trifluoromethyl-isonicotinamide] | 69
COc1cc(F)ccc1-c1ccncc1N(C)C(=O)c1cc(C(F)(F)F)nc(C(F)(F)F)c1 [Example 148, N-[4-(4-Fluoro-2-methoxy-phenyl)-pyridin-3-yl]-N-methyl-2,6-bis-trifluoro methyl-isonicotinamide] | 6
Cc1ccccc1-c1ccncc1N(CC(F)(F)F)C(=O)c1cc(C(F)(F)F)nc(C(F)(F)F)c1 [Example 150, N-(4-o-Tolyl-pyridin-3-yl)-N-(2,2,2-trifluoro-ethyl)-2,6-bis-trifluoromethyl-isonicotinamide] | 90
O=C(c1cc(C(F)(F)F)nc(C(F)(F)F)c1)N(CC(F)(F)F)c1cnccc1-c1ccccc1F [Example 151, N-[4-(2-Fluoro-phenyl)-pyridin-3-yl]-N-(2,2,2-trifluoro-ethyl)-2,6-bis-trifluoromethyl-isonicotinamide] | 47
Cc1ccccc1-c1ccncc1N(C)C(=O)c1cc(N2CCOCC2)cc(C(F)(F)F)c1 [Example 152, N-Methyl-3-morpholin-4-yl-N-(4-o-tolyl-pyridin-3-yl)-5-trifluoromethyl-benzamide] | 558
COc1cc(F)ccc1-c1ccncc1N(CC(F)F)C(=O)c1cc(C(F)(F)F)nc(C(F)(F)F)c1 [Example 153, N-(2,2-Difluoro-ethyl)-N-[4-(4-fluoro-2-methoxy-phenyl)-pyridin-3-yl]-2,6-bis-trifluoromethyl-isonicotinamide] | 19
O=C(c1cc(C(F)(F)F)nc(C(F)(F)F)c1)N(CC(F)F)c1cnccc1-c1ccccc1F [Example 155, N-(2,2-Difluoro-ethyl)-N-[4-(2-fluoro-phenyl)-pyridin-3-yl]-2,6-bis-trifluoromethyl-isonicotinamide] | 38
Cc1ccccc1-c1ccncc1N(CC(F)F)C(=O)c1cc(C(F)(F)F)nc(C(F)(F)F)c1 [Example 157, N-(2,2-Difluoro-ethyl)-N-(4-o-tolyl-pyridin-3-yl)-2,6-bis-trifluoromethyl-isonicotinamide] | 88
COc1cc(F)c(F)cc1-c1ccncc1N(CCS(C)(=O)=O)C(=O)c1cc(C(F)(F)F)nc(C(F)(F)F)c1 [Example 158, N-[4-(4,5-Difluoro-2-methoxy-phenyl)-pyridin-3-yl]-N-(2-methanesulfonyl-ethyl)-2,6-bis-trifluoromethyl-isonicotinamide] | 210
CS(=O)(=O)CCN(C(=O)c1cc(C(F)(F)F)nc(C(F)(F)F)c1)c1cnccc1-c1ccccc1F [Example 159, N-[4-(2-Fluoro-phenyl)-pyridin-3-yl]-N-(2-methanesulfonyl-ethyl)-2,6-bis-trifluoromethyl-isonicotinamide] | 326
COc1ncccc1-c1ccncc1N(CCS(C)(=O)=O)C(=O)c1cc(C(F)(F)F)nc(C(F)(F)F)c1 [Example 160, N-(2-Methanesulfonyl-ethyl)-N-(2-methoxy-[3,4′]bipyridinyl-3′-yl)-2,6-bis-trifluoromethyl-isonicotinamide] | 281
Cc1ccccc1-c1ccncc1N(CC#N)C(=O)c1cc(C(F)(F)F)cc(C(F)(F)F)c1 [Example 161, N-Cyanomethyl-N-(4-o-tolyl-pyridin-3-yl)-3,5-bis-trifluoromethyl-benzamide] | 29
COc1cc(F)ccc1-c1ccncc1N(CCS(C)(=O)=O)C(=O)c1cc(C(F)(F)F)nc(C(F)(F)F)c1 [Example 162, N-[4-(4-Fluoro-2-methoxy-phenyl)-pyridin-3-yl]-N-(2-methanesulfonyl-ethyl)-2,6-bis-trifluoromethyl-isonicotinamide] | 101

Continued by falling EC50, values first:

EC50 [nM] | SMILES
1330 | COc1cc(F)c(F)cc1-c1ccncc1N(CC(F)(F)F)C(=O)c1cc(F)cc(C(F)(F)F)c1 [Example 132, N-[4-(4,5-Difluoro-2-methoxy-phenyl)-pyridin-3-yl]-3-fluoro-N-(2,2,2-trifluoro-ethyl)-5-trifluoromethyl-benzamide]
912 | COc1cc(F)ccc1-c1ccncc1N(CC(F)(F)F)C(=O)c1cc(F)cc(C(F)(F)F)c1 [Example 134, 3-Fluoro-N-[4-(4-fluoro-2-methoxy-phenyl)-pyridin-3-yl]-N-(2,2,2-trifluoro-ethyl)-5-trifluoromethyl-benzamide]
396 | COc1ncccc1-c1ccncc1N(CC(F)(F)F)C(=O)c1cc(C(F)(F)F)cc(S(C)(=O)=O)c1 [Example 142, 3-Methanesulfonyl-N-(2-methoxy-[3,4′]bipyridinyl-3′-yl)-N-(2,2,2-trifluoro-ethyl)-5-trifluoromethyl-benzamide]
242 | Cc1ccccc1-c1ccncc1N(C)C(=O)c1cc(C#N)cc(C(F)(F)F)c1 [Example 149, 3-Cyano-N-methyl-N-(4-o-tolyl-pyridin-3-yl)-5-trifluoromethyl-benzamide]
166 | COc1cc(F)c(F)cc1-c1ccncc1N(C)C(=O)c1cc(F)cc(C(F)(F)F)c1 [Example 130, N-[4-(4,5-Difluoro-2-methoxy-phenyl)-pyridin-3-yl]-3-fluoro-N-methyl-5-trifluoromethyl-benzamide]
166 | COc1cc(F)c(F)cc1-c1ccncc1N(C)C(=O)c1cc(C(F)(F)F)cc(S(C)(=O)=O)c1 [Example 137, N-[4-(4,5-Difluoro-2-methoxy-phenyl)-pyridin-3-yl]-3-methanesulfonyl-N-methyl-5-trifluoromethyl-benzamide]
42 | COc1cc(F)ccc1-c1ccncc1N(C)C(=O)c1cc(C(F)(F)F)cc(S(C)(=O)=O)c1 [Example 138, N-[4-(4-Fluoro-2-methoxy-phenyl)-pyridin-3-yl]-3-methanesulfonyl-N-methyl-5-trifluoromethyl-benzamide]
39 | COc1cc(F)c(F)cc1-c1ccncc1N(CC(F)F)C(=O)c1cc(C(F)(F)F)nc(C(F)(F)F)c1 [Example 154, N-(2,2-Difluoro-ethyl)-N-[4-(4,5-difluoro-2-methoxy-phenyl)-pyridin-3-yl]-2,6-bis-trifluoromethyl-isonicotinamide]
36 | COc1ncccc1-c1ccncc1N(CC(F)F)C(=O)c1cc(C(F)(F)F)nc(C(F)(F)F)c1 [Example 156, N-(2,2-Difluoro-ethyl)-N-(2-methoxy-[3,4′]bipyridinyl-3′-yl)-2,6-bis-trifluoromethyl-isonicotinamide]
22 | COc1cc(F)c(F)cc1-c1ccncc1N(C)C(=O)c1cc(C(F)(F)F)nc(C(F)(F)F)c1 [Example 144, N-[4-(4,5-Difluoro-2-methoxy-phenyl)-pyridin-3-yl]-N-methyl-2,6-bis-trifluoromethyl-isonicotinamide]
19 | Cc1ccccc1-c1ccncc1N(C)C(=O)c1cc(C(F)(F)F)nc(C(F)(F)F)c1 [Example 131, N-Methyl-N-(4-o-tolyl-pyridin-3-yl)-2,6-bis-trifluoromethyl-isonicotinamide]
18 | COc1cc(F)ccc1-c1ccncc1N(CC(F)(F)F)C(=O)c1cc(C(F)(F)F)nc(C(F)(F)F)c1 [Example 147, N-[4-(4-Fluoro-2-methoxy-phenyl)-pyridin-3-yl]-N-(2,2,2-trifluoro-ethyl)-2,6-bis-trifluoromethyl-isonicotinamide]
